Results as given in patent publication US20230025843A1, “MAMMAL KINASE INHIBITORS TO PROMOTE IN VITRO EMBRYOGENESIS INDUCTION OF PLANTS” (CONSEJO SUPERIOR DE INVESTIGACIONES CIENTIFICAS (CSIC), priority 2019, published 2023).
Several values for one entry are separate records, joined by “and”; a condition that tells them apart may be missing. Identical values can stand only once.

Assays:
Assay type in all cases: cell-based
[1] = system: B. napus microspore cultures; assay: Microspore embryogenesis induction in isolated microspore culture (proembryos at 4 days), liquid medium; settings: for concentrations that provided an improvement of embryogenesis initiation yield: B. napus microspore cultures, proembryos at 4 days vs control, 3-4 concentrations tested; for increase in the percentage of proembryos: 4 days, vs control cultures normalized to 100%
Procedure: B. napus L. (rapeseed) cv. ‘Topas’ line DH407 plants were used as donor plants. Rapeseed seeds were germinated and grew under controlled conditions (relative humidity 60%, 15° C. under long-day photoperiod 16 h light and 8 h dark at 10° C.) in a growth chamber in pots containing a mixture of organic substrate and vermiculite (2/1, v/v).
Flower buds containing vacuolated microspores, the most responsive stage for microspore induction, were isolated for microspore culture as previously described (Prem et al., 2012 BMC Plant Biology 12, 127). The selected buds were surface-sterilized in 5.0% (v/v) commercial bleach (5% active chlorine) for 20 min and then rinsed 6-7 times with sterile distilled water. Ten to 15 buds were crushed using a cold mortar and pestle in 5 ml of cold NLN-13 medium containing 13% sucrose (w/v). The suspension was filtered through 48 μm nylon mesh and the filtrate collected in 15-ml falcon centrifuge tubes. The crushed buds were rinsed with 5 ml NLN-13 to make up the volume to 10 ml and the filtrate was then centrifuged at 1100 rpm for 5 min at 4° C. The pellet was re-suspended in 10 ml of cold NLN-13 and centrifuged as mentioned above. This process was repeated three times for washing of the microspores. The final pellet was suspended in the NLN-13, and the cell density was adjusted to 10,000 cells per ml. The cell suspension was then poured into 90-mm Petri dishes (10 ml per Petri dish) and cultured in darkness. For embryogenesis induction, microspore cultures were subjected to an in vitro stress treatment of 32° C. for 15 days. In response to the inductive treatment, responsive microspores divide and produce multicellular structures or proembryos, still confined within the microspore wall (exine). Such structures are considered to be the first sign of embryogenesis initiation; they can be found after 4-6 days in culture. When globular/heart shaped embryos were observed (around 20 days), cultures were shifted to 25° C. on a gyratory shaker at 60 rpm until complete development and maturation of the embryos was observed (FIG. 1), normally around 30 days in culture.
The compounds were added to the microspore liquid culture media by using stock solutions of 10 mM in DMSO. Appropriate volumes of stock solutions of the drugs were added to the culture media to get the selected working concentrations of the inhibitors, keeping DMSO concentration below 0.2%. • In B. napus microspore cultures: 4-benzyl-2-methyl-1,2,4-thiadozilidine-3,5-dione (TDZD8), 5-(2-Morpholinethylimino)-2,3-diphenyl-2,5-dihydro-1,2,4-thiadiazole (VP3.15), 3-acetyl-4-(1-methyl-1H-indol-3-yl)-1H-pirrol-2,5-dione (VP3.36), 4-hydroxy-1-ethyl-N′-palmitoyl-2-oxo-1,2-dihydroquinoline-3-carbohydrazide (VP0.7), N-(6-methylbenzothiazole-2-yl)-4-morpholinobenzamide (JZ1.3), N-(6-fluorobenzothiazole-2-yl)-4-morpholinobenzamide, (JZ1.6) and N-(6-bromobenzothiazole-2-yl)-4-morpholinobenzamide (JZ1.24). and (E,Z)-3-(morpholinoimino)indolin-2-one (IGS4.75) were tested at 3-4 different concentrations, ranging from 0.5 to 5 μM. • In H. vulgare microspore cultures: 4-benzyl-2-methyl-1,2,4-thiadozilidine-3,5-dione (TDZD8) and N-(6-bromobenzothiazole-2-yl)-4-morpholinobenzamide (JZ1.24) inhibitors at the selected concentrations (2.5 μM and […], respectively) were tested.
The compounds were added from culture initiation and their effect on embryogenesis efficiency was assessed. Several plates of the same cultures were kept without the inhibitors, as controls.
Embryogenesis induction was quantified in control and treated-cultures by the number of proembryos formed (considered the first sign of embryogenesis initiation), as previously described, and by the number of embryos produced after 40 days. Proembryos were easily identified under inverted microscope in 4 day-culture plates as rounded multicellular structures with higher size and density than microspores, still surrounded by the exine (special microspore wall). […]

[2] = system: H. vulgare microspore cultures; assay: Microspore embryogenesis induction in isolated microspore culture (proembryos at 4 days, embryos at 40 days), liquid medium; settings: for increase in proembryo formation: 4 days; for increment of total number of embryos produced per plate: 40 days, vs control, selected concentrations (2.5 μM TDZD8, 5 μM JZ1.24)
Procedure: H. vulgare L. cv. Igri plants were used as donor plants. Seeds were vernalized in soil for one month at 4° C., and then transferred for one month in a plant growth chamber at 18° C. for germination and growth. Finally, plants were transferred to a greenhouse under 18° C. temperature.
Spikes containing microspores at the stage of vacuolated microspore, the most responsive stage for embryogenesis induction, were collected and surface sterilized by immersion in 5% bleach for 20 min, followed by 4 washes with sterile distilled water. Isolated microspore culture was settled as previously described (Rodŕiguez-Serrano et al., 2012, Journal of Experimental Botany 63(5), 2007-2024). The sterilized spikes were pre-treated at 4° C. for 21-24 days as stress treatment to induce microspore embryogenesis. Microspore were isolated blending spikes in 20 ml of pre-cooled 0.4 M mannitol at 4° C., using a Waring Blender pre-cooled in a refrigerator at −20° C., and the extract was filtered through a 100 μm nylon mesh into a beaker pre-cooled at −20° C. The collected microspore suspension was transferred into a 50 ml tube and centrifuged at 800 rpm for 10 min at 4° C. After removing the supernatant, the pellet was resuspended in 4 ml of pre-cooled 0.55 M maltose and transferred in 15 ml falcon tube. 1.5 ml of 0.4 M mannitol solution were cautiously added unmixed. After gradient centrifugation at 800 rpm for 10 min at 4° C., the interphase band consisting of an almost pure population of vacuolated microspores was resuspended in 0.4M mannitol solution giving a final volume of 10 ml. After counting cells in the Neubauer chamber, the pelleted microspores were diluted in an appropriate volume of KBP medium to obtain a cell density of 1.1×10^5 cells per ml, and plated in 30 mm Petri dishes, at a volume of 1 ml per plate. Then, microspore cultures were incubated at 25° C. in the dark, and microspores reprogrammed and produced multicellular structures/proembryos that can be found after 4-6 days in culture, as the first sign of embryogenesis initiation. Proembryos further developed and produced coleoptylar and mature embryos (FIG. 2), which were observed after 30 days.
The compounds were added to the microspore liquid culture media by using stock solutions of 10 mM in DMSO. […]
The compounds were added from culture initiation and their effect on embryogenesis efficiency was assessed. […]
Embryogenesis induction was quantified in control and treated-cultures by the number of proembryos formed (considered the first sign of embryogenesis initiation), as previously described, and by the number of embryos produced after 40 days. […]

[3] = system: proembryos of B. napus microspore cultures; assay: DAPI staining of proembryos, fluorescence microscopy of squash preparations; settings: 4 days in culture
Procedure: In order to evaluate whether proembryo structures of treated cultures, identified under the inverted microscope for quantification, were actually dividing microspores, similar to the same structures in control cultures, a simply staining technique was performed to visualize nuclei inside proembryos. Samples from control and treated-cultures of 4 days, containing proembryos, were stained with 10 μg/mL 4′,6-diamidine-2-phenyl indole dihydrochloride (DAPI). Squash preparations were analysed under fluorescence microscopy using UV excitation for observing nuclei.

**Q.** For `O=C1Nc2ccccc2C1=NN1CCOCC1` [IGS4.75, (E,Z)-3-(morpholinoimino)indolin-2-one], which “concentrations that provided an improvement of embryogenesis initiation yield” value [1] is on record?
**A.** 5 µM

**Q.** How did the “concentrations that provided an improvement of embryogenesis initiation yield” value [1] turn out when `Cc1ccc2nc(NC(=O)c3ccc(N4CCOCC4)cc3)sc2c1` [JZ1.3, N-(6-methylbenzothiazole-2-yl)-4-morpholinobenzamide] was run?
**A.** 5 µM

**Q.** For `O=C(Nc1nc2ccc(F)cc2s1)c1ccc(N2CCOCC2)cc1` [JZ1.6, N-(6-fluorobenzothiazole-2-yl)-4-morpholinobenzamide], which “concentrations that provided an improvement of embryogenesis initiation yield” value [1] is on record?
**A.** 1 µM

**Q.** Which results are given for `O=C(Nc1nc2ccc(Br)cc2s1)c1ccc(N2CCOCC2)cc1` [JZ1.24, N-(6-bromobenzothiazole-2-yl)-4-morpholinobenzamide]?
**A.** increase in the percentage of proembryos ([1]; 2.5 μM): 27.5%; concentrations that provided an improvement of embryogenesis initiation yield [1]: 2.5 µM; increase in proembryo formation ([2]; 5 μM): 47%; increment of total number of embryos produced per plate [2]: 22%

**Q.** For `Cn1sc(=O)n(Cc2ccccc2)c1=O` [TDZD8, 4-benzyl-2-methyl-1,2,4-thiadozilidine-3,5-dione, reference compound], which “increase in the percentage of proembryos” value ([1]; 0.5 μM) is on record?
**A.** 20%

**Q.** What about the “concentrations that provided an improvement of embryogenesis initiation yield” value [1] of the same compound?
**A.** 0.5 µM and 1 µM

**Q.** And the “nuclei in proembryos (DAPI staining)” value [3]?
**A.** proembryos contain several nuclei

**Q.** And the “increase in proembryo formation” value ([2]; 2.5 μM)?
**A.** 27%

**Q.** And the “increment of total number of embryos produced per plate” value [2]?
**A.** 15%

**Q.** How did the “concentrations that provided an improvement of embryogenesis initiation yield” value [1] turn out when `CCCCCCCCCCCCCCCC(=O)NNC(=O)c1c(O)c2ccccc2n(CC)c1=O` [VP0.7, 4-hydroxy-1-ethyl-N′-palmitoyl-2-oxo-1,2-dihydroquinoline-3-carbohydrazide] was run?
**A.** 5 µM

**Q.** For `c1ccc(-c2nc(=NCCN3CCOCC3)sn2-c2ccccc2)cc1` [VP3.15, 5-(2-Morpholinethylimino)-2,3-diphenyl-2,5-dihydro-1,2,4-thiadiazole], which “concentrations that provided an improvement of embryogenesis initiation yield” value [1] is on record?
**A.** 2.5 µM

**Q.** Which “concentrations that provided an improvement of embryogenesis initiation yield” value [1] does the source give for `CC(=O)C1=C(c2cn(C)c3ccccc23)C(=O)NC1=O` [VP3.36, 3-acetyl-4-(1-methyl-1H-indol-3-yl)-1H-pirrol-2,5-dione] here?
**A.** 2.5 µM
